Experimental data taken from the NIST ThermoML archive (doi:10.1016/j.jct.2006.10.016).

Assay: xn = mol fraction of the nth substance listed
Conditions: 101 kPa, Liquid

CC(C)O [propan-2-ol] + C[S+](C)[O-]
x2 = 0
Conditions | mass density [kg/m3] | viscosity [mPa·s]
303.15 K | 776.4 | 1.792
308.15 K | 772.6 | 1.553
313.15 K | 768.6 | 1.355
318.15 K | 763.9 | 1.182
323.15 K | 758.8 | 1.041

C[S+](C)[O-] [dimethyl sulfoxide] + CC(C)O
Conditions | mass density, 303.15 K [kg/m3] | mass density, 308.15 K [kg/m3] | mass density, 313.15 K [kg/m3] | mass density, 318.15 K [kg/m3] | mass density, 323.15 K [kg/m3] | viscosity, 303.15 K [mPa·s] | viscosity, 308.15 K [mPa·s] | viscosity, 313.15 K [mPa·s] | viscosity, 318.15 K [mPa·s] | viscosity, 323.15 K [mPa·s]
x1 = 0.1001 | 806.4 | 802.2 | 798.2 | 793.2 | 787.9 | 1.525 | 1.352 | 1.2 | 1.078 | 0.9656
x1 = 0.2011 | 834.9 | 830.4 | 826 | 820.7 | 815.3 | 1.391 | 1.246 | 1.118 | 1.01 | 0.9102
x1 = 0.3005 | 865 | 860.4 | 856.3 | 850.6 | 845.2 | 1.306 | 1.18 | 1.078 | 0.9836 | 0.8887
x1 = 0.4007 | 895.8 | 891 | 887.1 | 881.3 | 875.8 | 1.335 | 1.209 | 1.103 | 1.011 | 0.9133
x1 = 0.4994 | 926.6 | 921.6 | 917.9 | 911.9 | 906.5 | 1.341 | 1.223 | 1.124 | 1.036 | 0.9383
x1 = 0.601 | 958.9 | 953.7 | 950 | 943.8 | 938.5 | 1.396 | 1.274 | 1.173 | 1.08 | 0.9843
x1 = 0.701 | 991.1 | 985.6 | 982.2 | 975.7 | 970.4 | 1.474 | 1.343 | 1.233 | 1.136 | 1.041
x1 = 0.7994 | 1023.3 | 1017.6 | 1014.5 | 1007.6 | 1002.3 | 1.55 | 1.41 | 1.31 | 1.198 | 1.108
x1 = 0.9005 | 1056.9 | 1051 | 1048.2 | 1041 | 1035.8 | 1.671 | 1.516 | 1.401 | 1.285 | 1.171
x1 = 1 | 1090.7 | 1084.7 | 1082.3 | 1075.1 | 1070 | 1.832 | 1.67 | 1.537 | 1.408 | 1.289

CCCO [propan-1-ol] + C[S+](C)[O-]
x2 = 0
Conditions | mass density [kg/m3] | viscosity [mPa·s]
303.15 K | 795.5 | 1.733
308.15 K | 791.1 | 1.534
313.15 K | 787 | 1.367
318.15 K | 783.3 | 1.234
323.15 K | 779.5 | 1.1

CCO [ethanol] + C[S+](C)[O-]
x2 = 0
Conditions | mass density [kg/m3] | viscosity [mPa·s]
303.15 K | 783.4 | 1.086
308.15 K | 779 | 0.9732
313.15 K | 774.6 | 0.8596
318.15 K | 769.8 | 0.8284
323.15 K | 766.1 | 0.7493

CO [methanol] + C[S+](C)[O-]
x2 = 0
Conditions | mass density [kg/m3] | viscosity [mPa·s]
303.15 K | 781.3 | 0.5178
308.15 K | 778.2 | 0.4843
313.15 K | 772.4 | 0.4515
318.15 K | 767.8 | 0.4233
323.15 K | 762.7 | 0.395

C[S+](C)[O-] [dimethyl sulfoxide] + CCO
Conditions | mass density, 303.15 K [kg/m3] | mass density, 308.15 K [kg/m3] | mass density, 313.15 K [kg/m3] | mass density, 318.15 K [kg/m3] | mass density, 323.15 K [kg/m3] | viscosity, 303.15 K [mPa·s] | viscosity, 308.15 K [mPa·s] | viscosity, 313.15 K [mPa·s] | viscosity, 318.15 K [mPa·s] | viscosity, 323.15 K [mPa·s]
x1 = 0.1008 | 836 | 831.6 | 827.6 | 822.8 | 818.1 | 1.244 | 1.122 | 1.025 | 0.9261 | 0.8551
x1 = 0.2004 | 870.1 | 865.6 | 861.7 | 856.7 | 852.1 | 1.205 | 1.096 | 0.9964 | 0.9126 | 0.8356
x1 = 0.2994 | 902.4 | 897.7 | 894 | 888.8 | 884 | 1.209 | 1.098 | 1.01 | 0.9262 | 0.8544
x1 = 0.4005 | 933.9 | 929 | 925.6 | 920.1 | 915.3 | 1.237 | 1.143 | 1.038 | 0.961 | 0.8876
x1 = 0.4995 | 963.3 | 958.2 | 955 | 949.2 | 944.4 | 1.282 | 1.179 | 1.086 | 1.004 | 0.9264
x1 = 0.6005 | 991.6 | 986.3 | 983.4 | 977.4 | 972.4 | 1.361 | 1.248 | 1.154 | 1.065 | 0.9847
x1 = 0.7012 | 1018.4 | 1013 | 1010.3 | 1004.1 | 999.3 | 1.464 | 1.34 | 1.234 | 1.139 | 1.05
x1 = 0.8011 | 1043.6 | 1038.3 | 1035.9 | 1029.5 | 1024.7 | 1.557 | 1.435 | 1.323 | 1.217 | 1.125
x1 = 0.8999 | 1067.5 | 1062.1 | 1059.8 | 1053.1 | 1048.4 | 1.658 | 1.517 | 1.393 | 1.289 | 1.183
x1 = 1 | 1090.7 | 1084.7 | 1082.3 | 1075.1 | 1070 | 1.832 | 1.67 | 1.537 | 1.408 | 1.289
